Reference: patent US20150071856A1, “ANTAGONISTIC PEPTIDES FOR FRIZZLED-1 AND FRIZZLED-2” (Universiteit Maastricht, priority 2013, published 2015)
Entries after “also recorded” stand apart in the source; their conditions may differ. Residues, ends and D or L forms follow the SMILES beside them.

Tests used:
[1] = system: infarct area; test: Histological, qPCR and Western blot analysis of the infarct area in mice; assay type: in vivo
Source text: This was confirmed by histological analysis of the infarct area.
RNA was isolated using the Trizol method (Invitrogen). For the RT-PCR, the RNA was transcribed to cDNA with Iscript™ cDNA synthesis kit (Bio-Rad, Hercules Calif., USA), Syber green (Eurogentec, Ghent, Belgium) was used for the detection of cDNA levels and cyclophilin served as the house keeping gene. In Supplementary methods panel 5, the primer sequences are shown.
For Western blot, cells were homogenized in ice-cold Laemmli buffer and protein content was measured using the BCA protein assay (Pierce Biotechnology Inc., Rockford Ill., USA); proteins were denatured by boiling, separated on a 10% SDS-page gel, and transferred onto a Hybond C nitrocellulose membrane (Amersham Biosciences, Little Chalfont, United Kingdom). After blocking, membranes were incubated overnight at 4° C. with primary antibodies against β-catenin, α-SMA (both 1:2000, BD Biosciences, Franklin Lakes N.J., USA) or β-actin (1:2000 Sigma-Aldrich). Anti-mouse immunoglobulin G 1/5000 (Vector Labs Inc.) was used as the secondary antibody, and the membranes were developed using the Supersignal West Pico chemiluminescence kit (Pierce). Images of the blots were analyzed with image analysis software (Qwin Leica, Cambridge, United Kingdom).
One-half of the hearts of the mice was embedded in paraffin and cut in 4 μm sections. The paraffin sections were rehydrated and washed in PBS. One section was stained with AZAN, allowing an accurate determination of the infarct size. To visualize the myofibroblasts in the infarct area, the sections were incubated with an antibody directed against α-smooth muscle actin (Sigma-Aldrich), followed by incubation with the peroxidase-conjugated secondary antibody (Vector laboratories). Nuclei were visualized by hematoxylin. Photos were taken with a Leica (CTR500, 63×/0.85) camera and analyzed with the Quantimet program (QWin/QGo). An examiner blinded to the groups of the animals obtained all measurements. For the experiments with Rhodamine-labeled UM206, frozen sections (4 μm) of mouse kidney and small intestine were used.

[2] = system: myocardial infarction; test: Hemodynamic measurements (Millar catheter, left ventricle) of mice after myocardial infarction; assay type: in vivo; details: UM206-treated groups post-MI
Description: Cardiac function was further assessed using a Millar pressure recording catheter inserted into the left ventricle. […] These observations further underscore the beneficial effect of UM206 treatment on cardiac function post-MI.
The animals were anaesthetized with urethane ([…], i.p., Sigma-Aldrich) followed by intubation and connected to a rodent ventilator (Hugo Sachs, March-Hugstetten, Germany). Body temperature was maintained at 37° C. The mice were then allowed to stabilize prior to hemodynamic measurements. A high-fidelity catheter tip micromanometer (Mikro-tip1.4F, SPR-671; Millar Instruments, Houston Tex., USA) was inserted through the right carotid artery into the left ventricular cavity. Ventricular pressure was measured. Maximal positive and negative pressure development (+dP/dt and −dP/dt) and heart rate were determined on a beat-to-beat basis. The heart was then stimulated by an i.v. ramp-infusion of dobutamine (Sigma-Aldrich) using a micro-injection pump (Model 200 Series, KdScientific, Boston, Mass., USA).

[3] = system: C-FIT cells (cardiac fibroblasts immortalized with telomerase); test: Migration assay (wound/scratch assay) with C-FIT cells overexpressing Fzd-1 or -2; assay type: cell-based, rat
Description: For this assay, we used rat cardiac fibroblasts, which were immortalized with telomerase, the C-FIT cell line. This cell line was characterized previously and resembles features of primary cardiac fibroblasts. C-FIT cells were plated, treated when they were 70% confluent and a wound was made with a pipette tip at the moment of 100% confluence.
This assay was first tested with the natural ligand Wnt3a, in combination with frizzled-1 and -2 overexpression. […] Next step was to see whether the antagonist could counteract this. (See FIG. 4.)
Plate cells in 12-well plates
Transfection (see protocol)
Addition of conditioned medium
Make a scratch. This is time point zero.
Making pictures every six hours and analyzing the scratch width.
The overexpression of Fzd-1 and -2 in migrating (myo)fibroblasts during infarct healing was one of the first reports of activation of Wnt/Fzd signaling in cardiovascular remodeling (Blankesteijn 1997). To assess the functional relevance of Wnt/Fzd signaling on cardiac fibroblast proliferation, migration and differentiation, a cardiac fibroblast cell line immortalized with telomerase was used, as previously described (Janhunen 2009, Laeremans 2009).
Cells were plated on day 0, and cultured until 70% confluence before transfection or treatment. […] Scratch width was measured at this time point, and also after 6, 12, and 24 hours.

[4] = target: T1, hFzd-5 (Homo sapiens, UniProt Q13467); test: Receptor specificity: luciferase in HEK293 superTOPflash cells overexpressing hFzd-5; assay type: cell-based; details: UM206 1.10^−8 M
T1 construct: expressed in transfected cells; host or cells: HEK293 superTOPflash (transient, Fugene6, pcDNA3.0)
Description: In FIG. 3, Panel E, the efficacy of UM206 to block the Wnt3a-induced activation of luciferase activity in HEK293 superTOPflash cells transfected with different Fzds is shown.
The cell lines were cultured in 75 cm^2 culture flasks (Corning, Schiphol, the Netherlands) in Dulbeco's modified essential medium with L-glutamine (2 mM), 10% fetal calf serum (Invitrogen, Merelbeke, Belgium), and 1% gentamycin (Sigma-Aldrich, Zwijndrecht, The Netherlands). Before starting the experiment, the cell lines were treated with plasmocin 25 μg/ml (Invivogen, Toulose, France) and tested with a mycoalert mycoplasma detection kit (Lonza, Rockland Me., USA). Cells were transiently transfected with Fugene6 (Roche, Indianapolis Ind., USA) with plasmid DNA, pcDNA3.1/hygro (Invitrogen) with frizzled-1/2/4 or Wnts 3a-5a or with pcDNA3.0 (Invitrogen) containing the β-catenin or frizzled-5 sequence. After transfection, the cells were cultured for 24 hours in conditioned medium, collected from the cultured L-cells, L-cells with Wnt3a or 5a (Invitrogen). At the same moment the antagonist was added.

[5] = system: myocardial infarction; test: Echocardiography of mice after myocardial infarction; assay type: in vivo; details: UM206-treated group post-MI
Description: All animals were subjected to extensive echocardiography studies for the assessment of myocardial infarct size, LV cavity dimensions and ventricular function. Echocardiography examination was performed under 2% isofluorane. Echocardiograms were recorded with Philips Sonos 5500 ultrasound system (Philips, Eindhoven, the Netherlands) using a 20-MHz linear probe.

T1 sequence (Q13467 27-585): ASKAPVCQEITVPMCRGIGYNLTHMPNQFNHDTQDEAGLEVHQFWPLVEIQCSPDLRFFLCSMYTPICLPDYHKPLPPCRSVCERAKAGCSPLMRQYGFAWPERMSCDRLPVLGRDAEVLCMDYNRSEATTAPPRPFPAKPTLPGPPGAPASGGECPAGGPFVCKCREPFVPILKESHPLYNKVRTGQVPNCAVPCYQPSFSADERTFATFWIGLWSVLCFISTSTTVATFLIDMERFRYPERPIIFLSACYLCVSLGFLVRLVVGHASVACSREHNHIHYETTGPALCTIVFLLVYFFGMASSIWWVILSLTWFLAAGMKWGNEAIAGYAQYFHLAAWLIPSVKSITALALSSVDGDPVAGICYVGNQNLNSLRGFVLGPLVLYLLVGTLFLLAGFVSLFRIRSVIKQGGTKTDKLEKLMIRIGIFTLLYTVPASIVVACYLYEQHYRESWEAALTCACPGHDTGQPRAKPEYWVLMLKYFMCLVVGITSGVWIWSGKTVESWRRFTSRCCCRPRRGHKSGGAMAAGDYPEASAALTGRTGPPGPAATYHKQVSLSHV

**Q.** With `CSCC[C@H](NC(=O)CNC(=O)[C@H](CCC(=O)O)NC(=O)[C@H](CO)NC(=O)[C@@H](NC(=O)[C@H](CCCCN)NC(=O)[C@H](CC(N)=O)NC(=O)[C@H](CS)NC(C)=O)[C@@H](C)O)C(=O)N[C@@H](CC(=O)O)C(=O)NCC(=O)N[C@@H](CS)C(=O)N[C@@H](CCC(=O)O)C(=O)N[C@@H](CC(C)C)C(N)=O` [UM206, Ac-Cys-Asn-Lys-Thr-Ser-Glu-Gly-Met-Asp-Gly-Cys-Glu-Leu-NH2] (Ac-CNKTSEGMDGCEL-NH2) as the molecule, how does the “infarct area size versus saline” value ([1]; 2 and 5 weeks after MI) read?
**A.** significantly smaller

**Q.** What about the “thickness of the infarct area versus saline” value ([1]; 2 and 5 weeks after MI) of the same molecule?
**A.** significantly thicker

**Q.** And the “myofibroblast numbers in the infarct area versus saline” value ([1]; five weeks post-MI)?
**A.** significantly elevated number

**Q.** And the “blood vessels in the infarct area versus saline” value ([1]; five weeks treatment)?
**A.** increased amount of blood vessels

**Q.** What about the “collagen levels in the infarct area versus saline” value ([1]; five weeks treatment) of the same molecule?
**A.** reduced collagen levels

**Q.** What about the “α-SMA levels in infarcts versus saline” value ([1]; five-week-old infarcts, qPCR and Western blotting) of the same molecule?
**A.** significantly higher α-SMA levels

**Q.** And the “myofibroblast numbers in the infarct area versus saline” value ([1]; two weeks post-MI)?
**A.** more than four-fold higher; also recorded: four-fold more myofibroblasts

**Q.** What about the “positive and negative dP/dt versus saline” value [2] of the same molecule?
**A.** higher positive dP/dt and a lower negative dP/dt value

**Q.** And the “effect of UM206 alone on cell migration” value [3]?
**A.** no effect on cell migration

**Q.** And the “counteraction of Wnt3a/Wnt5a-induced attenuation of migration” value ([3]; UM206 1.10^−8 M, Fzd-1 or -2 overexpression)?
**A.** migration was reset to the migration speed of the control; also recorded: blocked completely; also recorded: block this effect completely

**Q.** And the “effect on Wnt3a-induced luciferase activity, frizzled-5” value [4]?
**A.** no effect

**Q.** What about the “change of ejection fraction versus saline” value [5] of the same molecule?
**A.** doubling of the ejection fraction

**Q.** And the “reduction in end diastolic volume of the left ventricle versus saline” value [5]?
**A.** 40%
